Measurements taken from US9695102B2, “Alkali metal cinnamate powder and method for preparation” (Purac Biochem BV, priority 2009, dated 2017).

Tests used:
Type in all cases: physicochemical
[1] = Average moisture content of resulting powder; conditions: resulting powder after drying
[2] = Particle size distribution, Malvern Mastersizer 2000 laser diffraction; design: D (0.1) / D (0.5) / D (0.9) / D [3.2] / D [4.3]: unit not given here
From the text: Particle size distribution has been measured with a Malvern Mastersizer 2000® particle size analyzer Measurement. Measuring principle is based on laser diffraction.

[3] = Hausner ratio from tapped and aerated bulk density, Micron Powder Characteristics Tester; conditions: for Hausner Ratio: from tapped and aerated bulk density, flowability; for Tapped Bulk Density: tapped powder; for Aerated Bulk Density: untapped powder
Description: (§1) These are all standard measurements described in various text and hand books on powders and their properties. The various measurements were done using a Micron Powder Characteristics Tester™ (Model PT-N) from Hosokawa Micron International Inc.
(§2) The Hausner ratio is determined by measurement of the tapped and untapped (or aerated) bulk density. The angle of repose is determined by measurement of the angle of a cone of powder that is formed by pouring the powder through a glass funnel.

[4] = Angle of repose, Micron Powder Characteristics Tester
Description: as §1, §2

[5] = Angle of spatula, Micron Powder Characteristics Tester
Description: as §1
The angle of spatula is determined by measurement the difference in the angle of powder—that stays behind on a spatula when a container with said spatula on the bottom and filled with said powder is lowered and the spatula stays on the same height—and the angle of the powder on said spatula after the spatula was tapped by a weight.

Row | SMILES | average moisture content [1] | D (0.1) [2] | D (0.5) [2] | D (0.9) [2] | D [3.2] [2] | D [4.3] [2] | Span (—) [2] | Carr class ([3]; Carr flowability scale based on compaction) | Hausner Ratio [3] | Tapped Bulk Density [3] [kg m^−3] | Aerated Bulk Density [3] [kg m^−3] | Angle of repose ([4]; cone of powder poured through glass funnel) | Angle of repose [index] ([4]; flowability index word) | Angle of spatula [index] ([5]; flowability index word) | Angle of spatula ([5]; powder on spatula before and after tapping) | Hausner Ratio ([3]; listed as Commercially available potassium cinnamate)
1 | O=C([O-])C=Cc1ccccc1.[K+] [Experiment 1, potassium cinnamate] | less than 2 wt % | – | – | – | – | – | – | – | – | – | – | – | – | – | – | –
2 | O=C([O-])C=Cc1ccccc1.[K+] [Experiment 2, potassium cinnamate] | about 0.5 wt % | – | – | – | – | – | – | – | – | – | – | – | – | – | – | –
3 | O=C([O-])C=Cc1ccccc1.[K+] [Potassium cinnamate of the present disclosure] | – | 114 | 192 | 320 | 178 | 206 | 1.07 | Good | 1.15 | 945 | 823 | 35.6 | good | normal | 48 | –
4 | O=C([O-])C=Cc1ccccc1.[K+] [Potassium cinnamate commercially available] | – | 44 | 240 | 601 | 89 | 286 | 2.32 | – | 1.66 | 527 | 318 | – | – | – | – | about 1.66
